Test results published in US7402399B2, “Receptor tyrosine kinase signaling pathway analysis for diagnosis and therapy” (Monogram BioSciences, Inc., priority 2003, dated 2008).

Experiments:
[1] = biological target: T1, Her2-Her3 heterodimers (Homo sapiens, UniProt P04626+P21860); experiment: eTag assay of cell lysates for Her2-Her3 heterodimers after ligand stimulation; type: cell-based; conditions: MCF-7 cells, increasing ligand concentrations (0-100 nM), 10 minutes at 37° C.
T1 construct: endogenous in cells; host or cells: MCF-7
Description: Measurements are made using three binding compounds and a cleaving probe as described below.
• 1. Serum-starve breast cancer cell line culture overnight before use. • 2. […] Aspirate culture media, transfer onto ice, and add lysis buffer to lyse cells in situ. • 4. Scrape and transfer lysate to microfuge tube. Incubate on ice for 30 min. Microfuge at 14,000 rpm, 4° C., for 10 min. (Centrifugation is optional.) • 5. Collect supernatants as lysates and aliquot for storage at −80° C. until use. Assay: Assay design: As illustrated diagrammatically in FIG. 4A, Her2-Her3 heterodimers (900) are quantified ratiometrically based on the binding of cleaving probe (902) and binding compounds (904), (906), and (908). A photosensitizer indicated by “PS” is attached to cleaving probe (902) via an avidin-biotin linkage, and binding compounds (904), (906), and (908) are labeled with molecular tags Pro4, Pro10, and Pro 11, respectively. Binding compound (904) is specific for a phosphorylation site on Her3. The total assay volume is 40 ul. The lysate volume is adjusted to 30 ul with lysis buffer. […]
Data Analysis: • 3. Normalize relative fluorescence units (RFU) signal of each molecular tag against CE reference standard A315 (a fluorescein-derivatized deoxyadenosine monophosphate that has known peak position relative to molecular tags from the assay upon electrophoretic separation). • 4. […]

[2] = tested on: Her1 phosphorylation; experiment: eTag assay of cell lysates for Her1 receptor phosphorylation; type: cell-based, human; conditions: BT-20 cells, increasing EGF concentration
Description: Sample preparation was carried out essentially as described in Example 2.
Assay design: A monoclonal antibody specific to the receptor is separately conjugated with either a molecular tag or biotin (that is then linked to a photosensitizer via an avidin bridge), so that the cleaving probe and a binding compound compete to bind to the same epitope in this example. Another binding compound is used that consists of a second anibody recognizing an […] epitope on the receptor, so that a ratiometric signal can be generated as a measure of homodimerization. The signal derived from the second antibody also provides a measure of the total amount of receptor in a sample. The total amount of receptor is determined in a separate assay well. Receptor phosphorylation can be quantified together with either homodimerization or total receptor amount.
Procedure: The assay volume is 40 ul and the general procedure is similar to that of Example 2. Two assay wells, A and B, are set up for each sample to quantify homodimerization and total amount of receptor separately. […]

[3] = tested on: intracellular phosphorylated tyrosine (Her receptor phosphorylation); experiment: eTag assay of formalin fixed paraffin embedded cell pellets for receptor phosphorylation; type: cell-based, human; conditions: 100 nM EGF vs non-stimulated
Description: In this example, model fixed tissues made from pelleted cell lines were assayed for the presence of Her receptor dimers. The assay design for heterodimers was essentially the same as that described in FIG. 4A, with exceptions as noted below. That is, four components are employed: (i) a cleaving probe comprising a biotinylated monoclonal antibody conjugated to a cleavage-inducing moiety (in this example, a photosensitizer-derivatized streptavidin, as illustrated in FIG. 3E) and specific for one of the receptors of the dimer, (ii) a monoclonal antibody derivatized with a first molecular tag and specific for the same receptor as the cleaving probe, (iii) a monoclonal antibody derivatized with a second molecular tag and specific for the receptor opposite to that the cleaving probe is specific for, and (iv) a monoclonal antibody derivatized with a third molecular tag and specific for an intracellular phosphorylated tyrosine. The assay design for homodimers was essentially the same as that described in FIG. 1D, with exceptions as noted below.
In each case, model fixed tissues were prepared as follows: cells grown on tissue culture plates were stimulated with either EGF or HRG as described in the prior examples, after which they were washed and removed by scrapping. […]

EGF: epidermal growth factor, ligand used to stimulate cell lines
quantity of Her2-Her3 heterodimers [1]: essentially no change | quantity of Her1 phosphorylation [2]: increases | Her receptor phosphorylation ([3]; fixed pellets of 22Rv1 cells): up-regulation | intracellular phosphorylation ([3]; fixed pellets of MDA-MB468 cells): increases
